From article PMC7076352 (Pharmaceutics, 2020)
Like-named read-outs stand apart in the source and are kept apart here. Each block holds one molecule with its values, some of them ahead of it.

Assays:
CYP2D6 = experiment: in vitro
Experimental: (§1) (OHBUP-[D6]) and 5 nM 4′-hydroxydiclofenac-[^13C6] (OHDIC-[^13C6]) as internal standards (ISs). […]
(§2) standard addition experiments. Each group included four concentration levels. For the PK […]
(§3) The probe compounds, viz. […]
(§4) chosen after incubating all the recruited substrates. In order to assure the linear relationship […]
(§5) The incubation system was also optimized in terms of substrate concentrations. The substrates concentrations of […]

CYP3A4 = experiment: in vitro
Experimental: as §1, §2, §3, §4, §5

CYP2B6 = experiment: In vitro cocktail CYP450 activity assay in rat liver microsomes, CYP2B6 (bupropion probe)
Experimental: as §1, §2, §3, §4, §5

CYP2C9 = experiment: In vitro cocktail CYP450 activity assay in rat liver microsomes, CYP2C9 (tolbutamide probe)
Experimental: as §1, §2, §3, §4, §5

CYP2C19 = experiment: In vitro cocktail CYP450 activity assay in rat liver microsomes, CYP2C19 (omeprazole probe)
Experimental: as §1, §2, §3, §4, §5

CYP1A2 = biological target: T1, CYP1A2 (Rattus norvegicus, UniProt P04799); experiment: In vitro cocktail CYP450 activity assay in rat liver microsomes, CYP1A2 (phenacetin probe)
T1 sequence (P04799 1-513): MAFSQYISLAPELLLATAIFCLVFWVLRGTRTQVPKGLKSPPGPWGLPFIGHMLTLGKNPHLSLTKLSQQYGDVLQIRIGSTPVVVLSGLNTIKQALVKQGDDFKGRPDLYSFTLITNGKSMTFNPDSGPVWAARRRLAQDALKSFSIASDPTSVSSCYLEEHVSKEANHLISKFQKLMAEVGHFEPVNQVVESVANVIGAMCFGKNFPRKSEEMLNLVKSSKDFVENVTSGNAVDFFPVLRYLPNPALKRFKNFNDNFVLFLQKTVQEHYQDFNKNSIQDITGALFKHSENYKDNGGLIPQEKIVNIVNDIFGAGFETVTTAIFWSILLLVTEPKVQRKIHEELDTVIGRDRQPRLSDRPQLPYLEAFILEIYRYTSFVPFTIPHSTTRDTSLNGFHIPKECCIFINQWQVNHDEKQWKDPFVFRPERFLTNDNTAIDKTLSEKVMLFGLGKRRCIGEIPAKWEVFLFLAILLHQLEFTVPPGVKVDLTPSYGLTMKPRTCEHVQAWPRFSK
Experimental: as §1, §2, §3, §4, §5

CYP2E1 [1] = biological target: T2, CYP2E1 (Rattus norvegicus, UniProt P05182)
CYP2E1 [2] = biological target: T2, CYP2E1; settings: IC50 CYP2E1, single components; RLM 0.2 mg/mL, 15 min, triplicate, mean ± SD
in vivo = experiment: in vivo; set-up: species or system Sprague-Dawley (SD) rats; settings: Sprague-Dawley, plasma, rat
Experimental: At each time, 0.5 mL of blood was collected in the heparin sodium tubes. Plasma was separated by centrifugation at 4000 rpm for 10 min and stored below −80 °C until bioanalysis. Oasis PRiME HLB SPE cartridges (1 cc/30 mg, Waters, Milford, MA, USA) were used to process the plasma samples (Supplementary Materials).
The generic layout of instrumentation setup of the LVDI-UHPLC-MS/MS was conducted on a Shimadzu UHPLC system consisting of two LC-20ADXR pumps, a DGU-20A3R degasser, and a CBM-20A controller (Kyoto, Japan) with a SCIEX 4500 QTRAP mass spectrometer mounted with an electron spray ionization (ESI) interface as well as an electronic 6-port/2-channel valve (Foster City, CA, USA). Analyst software package (version 1.6.2, SCIEX) was implemented to control and synchronize the entire system, and also for data acquisition and processing. A single analytical run was fragmented into two phases, namely, loading and elution phases, by switching the electronic valve (Figure 2). At the loading phase, the valve was maintained at A-channel. The specimen aliquot of large volume delivered from the auto-sampler was captured onto a guard column. Meanwhile, the pumps were responsible for delivering the mobile phase at a high flow rate, aiming to dilute the sample solvent, thus facilitating the candidate constituents to concentrate on the pre-guard column. Then, the valve was automatically switched to the B-channel to trigger the elution phase. The trapped components were flushed from the pre-guard column into an analytical column, and underwent multiple reaction monitoring (MRM) analysis on the optimized LC gradients. The detailed information of LVDI-UHPLC-MS/MS analysis for pharmacokinetic and cocktail studies is shown in the Supplementary Materials section.

[3] = read-out: IC50 CYP3A4, single components, RLM 0.2 mg/mL, 15 min, triplicate, mean ± SD
[4] = read-out: IC50 CYP2C9, single components, RLM 0.2 mg/mL, 15 min, triplicate, mean ± SD
[5] = Sprague-Dawley, rat, 15 min, pH 7.4
[6] = at the Cmax level in rat plasma, calculated from the dose–response curve

T2 sequence (P05182 whole entry): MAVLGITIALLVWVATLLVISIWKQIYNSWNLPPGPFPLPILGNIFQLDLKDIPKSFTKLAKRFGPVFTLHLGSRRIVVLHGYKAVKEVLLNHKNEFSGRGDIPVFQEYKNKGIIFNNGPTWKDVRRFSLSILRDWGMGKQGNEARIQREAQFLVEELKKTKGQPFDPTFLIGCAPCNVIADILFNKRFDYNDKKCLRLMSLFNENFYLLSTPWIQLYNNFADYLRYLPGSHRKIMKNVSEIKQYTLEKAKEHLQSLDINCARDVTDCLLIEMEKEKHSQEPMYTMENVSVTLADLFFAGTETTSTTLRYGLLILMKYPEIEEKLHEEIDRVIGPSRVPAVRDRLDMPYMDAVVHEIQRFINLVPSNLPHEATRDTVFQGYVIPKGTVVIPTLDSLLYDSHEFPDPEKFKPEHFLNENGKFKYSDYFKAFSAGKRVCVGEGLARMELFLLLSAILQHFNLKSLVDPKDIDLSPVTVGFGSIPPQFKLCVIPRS

IC50 (CYP1A2; microsomes): 127 ± 6.55 µM | IC50 (CYP2D6; microsomes): > 200 µM | IC50 (CYP3A4; microsomes): > 200 µM | IC50 (CYP2B6; microsomes): > 200 µM | IC50 (CYP2C9; microsomes): > 200 µM | IC50 (CYP2E1 [1]; microsomes): > 200 µM | IC50 (CYP2C19; microsomes): > 200 µM
Molecule: O=C(O)[C@H]1OC(Oc2cc3oc(-c4ccc(O)cc4)cc(=O)c3c(O)c2OC2O[C@H](CO)[C@@H](O)[C@H](O)[C@H]2O)[C@H](O)[C@@H](O)[C@@H]1O (stereo partly drawn) [A15, 6-hydroxyapigenin-6-O-glucosyl-7-O-glucuronide]

IC50 (CYP1A2; microsomes): > 200 µM | IC50 (CYP2D6; microsomes): > 200 µM | IC50 (CYP3A4; microsomes): > 200 µM | IC50 (CYP2B6; microsomes): > 200 µM | IC50 (CYP2C9; microsomes): 39.06 ± 0.09 µM | IC50 (CYP2E1 [1]; microsomes): > 200 µM | IC50 (CYP2C19; microsomes): > 200 µM
Molecule: O=c1c(OC2O[C@H](CO)[C@@H](O)[C@H](O)[C@H]2O)c(-c2ccc(O)cc2)oc2cc(OC3O[C@H](CO)[C@@H](O)[C@H](O)[C@H]3O)c(OC3O[C@H](CO)[C@@H](O)[C@H](O)[C@H]3O)c(O)c12 (stereo partly drawn) [A10, 6-hydroxykaempferol-3,6,7-tri-O-glucoside]

IC50 CYP1A2 (CYP1A2; microsomes): 60.68 ± 2.26 µg/mL | IC50 CYP2D6 (CYP2D6; microsomes): 12.23 ± 4.25 µg/mL | IC50 CYP3A4 (CYP3A4; microsomes): 106.27 ± 14.00 µg/mL | IC50 CYP2B6 (CYP2B6; microsomes): 43.90 ± 7.91 µg/mL | IC50 CYP2C9 (CYP2C9; microsomes): 9.32 ± 0.56 µg/mL | IC50 CYP2C19 (CYP2C19; microsomes): 40.85 ± 6.98 µg/mL
Molecule: notoginseng total saponins [NGTS]

The remaining lines, values behind:

Molecule: kaempferol-3-O-rutinoside [A11]
IC50 (CYP2D6; read-out: IC50 CYP2D6, single components, RLM 0.2 mg/mL, 15 min, triplicate, mean ± SD): 64.5 ± 7.71 µM | IC50 (CYP3A4; [3]): 16.2 ± 4.3 µM | IC50 (CYP2B6; read-out: IC50 CYP2B6, single components, RLM 0.2 mg/mL, 15 min, triplicate, mean ± SD): 17.3 ± 0.96 µM | IC50 (CYP2C9; [4]): 24.9 ± 4.96 µM | IC50 (CYP2C19; read-out: IC50 CYP2C19, single components, RLM 0.2 mg/mL, 15 min, triplicate, mean ± SD): > 200 µM

Molecule: CC(C)=CCC[C@](C)(O[C@@H]1O[C@H](CO)[C@@H](O)[C@H](O)[C@H]1O)[C@H]1CC[C@]2(C)[C@@H]1[C@H](O)C[C@@H]1[C@@]3(C)CC[C@H](O)C(C)(C)[C@@H]3[C@@H](O[C@@H]3O[C@H](CO)[C@@H](O)[C@H](O)[C@H]3O[C@@H]3OC[C@@H](O)[C@H](O)[C@H]3O)C[C@]12C [NGR1, notoginsenoside R1]
IC50 (CYP1A2; IC50 CYP1A2, single components, RLM 0.2 mg/mL, 15 min, triplicate, mean ± SD): 112 ± 7.72 µM | Response (% control) CYP2D6 (CYP2D6; [5]): 92.76 % control | IC50 at 15 min (CYP2D6; Sprague-Dawley, rat, microsomes, pH 7.4, IC50 CYP2D6): 20.4 ± 3.45 µM | IC50 (CYP3A4; Sprague-Dawley, rat, microsomes, pH 7.4, IC50 CYP3A4, single components, RLM 0.2 mg/mL, 15 min, triplicate, mean ± SD): 84.6 ± 1.79 µM | Response (% control) CYP3A4 (CYP3A4; [6]): 99.94 % control | IC50 at 15 min (CYP2B6; Sprague-Dawley, rat, pooled rat liver microsomes, pH 7.4, probe bupropion (90 µM, in seven-probe cocktail), IC50 CYP2B6, single components, RLM 0.2 mg/mL, 15 min, triplicate, mean ± SD): > 200 µM | IC50 at 15 min (CYP2C9; Sprague-Dawley, rat, pooled rat liver microsomes, pH 7.4, probe tolbutamide (18 µM, in seven-probe cocktail), IC50 CYP2C9, single components, RLM 0.2 mg/mL, 15 min, triplicate, mean ± SD): 154 ± 16.6 µM | Response (% control) CYP2C9 (CYP2C9; [6]): 99.99 % control | Response (% control) CYP2E1 (CYP2E1 [1]; [5]): 99.99 % control | IC50 at 15 min (CYP2C19; Sprague-Dawley, rat, pooled rat liver microsomes, pH 7.4, probe omeprazole (1.07 µM, in seven-probe cocktail), IC50 CYP2C19, single components, RLM 0.2 mg/mL, 15 min, triplicate, mean ± SD): 108 ± 29.6 µM | Response (% control) CYP2C19 (CYP2C19; [6]): 92.32 % control | IC50 (CYP2E1 [2]): 122 ± 8.96 µM | concentration at […] (in vivo; 0.083 h after oral CNP): 0.26 ± 0.06 ng/mL | concentration at 0.25 h (in vivo; 0.25 h after oral CNP): 0.36 ± 0.05 ng/mL | concentration at 0.5 h (in vivo; 0.5 h after oral CNP): 0.53 ± 0.29 ng/mL | concentration at 1 h (in vivo; 1 h after oral CNP): 0.45 ± 0.19 ng/mL | concentration at 1.5 h (in vivo; 1.5 h after oral CNP): 0.33 ± 0.12 ng/mL | concentration at 2 h (in vivo; 2 h after oral CNP): 0.32 ± 0.05 ng/mL | concentration at 3 h (in vivo; 3 h after oral CNP): 0.44 ± 0.15 ng/mL | concentration at 4 h (in vivo; 4 h after oral CNP): 0.38 ± 0.12 ng/mL | concentration at 6 h (in vivo; 6 h after oral CNP): 0.37 ± 0.17 ng/mL | concentration at 8 h (in vivo; 8 h after oral CNP): 0.46 ± 0.15 ng/mL | concentration at 12 h (in vivo; 12 h after oral CNP): 0.38 ± 0.18 ng/mL | concentration at 24 h (in vivo; 24 h after oral CNP): 0.17 ± 0.06 ng/mL | AUC(0-inf) (in vivo; po, 60 mg/kg): 8.14 ± 3.6 ng·h/mL | AUC(0-t) (in vivo; po, 60 mg/kg): 6.3 ± 2.41 ng·h/mL | Cmax (in vivo; po, 60 mg/kg): 0.64 ± 0.18 ng/mL | Tmax (in vivo; po, 60 mg/kg): 1.15 ± 1.06 h | half-life (in vivo; po, 60 mg/kg): 10.5 ± 3.06 h | concentration at 0.25 h (in vivo; po, 60 mg·kg^−1): 0.46 ± 0.18 ng/mL | concentration at 0.5 h (in vivo; po, 60 mg·kg^−1): 0.5 ± 0.15 ng/mL | concentration at 1 h (in vivo; po, 60 mg·kg^−1): 0.45 ± 0.14 ng/mL | concentration at 1.5 h (in vivo; po, 60 mg·kg^−1): 0.28 ± 0.1 ng/mL | concentration at 2 h (in vivo; po, 60 mg·kg^−1): 0.25 ± 0.11 ng/mL | concentration at 3 h (in vivo; po, 60 mg·kg^−1): 0.46 ± 0.2 ng/mL | concentration at 4 h (in vivo; po, 60 mg·kg^−1): 0.38 ± 0.26 ng/mL | concentration at 6 h (in vivo; po, 60 mg·kg^−1): 0.25 ± 0.06 ng/mL | concentration at 8 h (in vivo; po, 60 mg·kg^−1): 0.35 ± 0.06 ng/mL | concentration at 12 h (in vivo; po, 60 mg·kg^−1): 0.35 ± 0.14 ng/mL | concentration at 24 h (in vivo; po, 60 mg·kg^−1): 0.14 ± 0.04 ng/mL

Molecule: O=c1c(O[C@@H]2O[C@H](CO)[C@@H](O)[C@H](O)[C@H]2O[C@@H]2O[C@H](CO)[C@@H](O)[C@H](O)[C@H]2O)c(-c2ccc(O)cc2)oc2cc(O)cc(O)c12 [A14, kaempferol-3-O-sophoroside]
IC50 (CYP1A2; read-out: IC50 CYP1A2, single components, RLM 0.2 mg/mL, 15 min, triplicate, mean ± SD): > 200 µM | IC50 (CYP2D6; microsomes): > 200 µM | IC50 (CYP3A4; [3]): > 200 µM | IC50 (CYP2B6; microsomes): > 200 µM | IC50 (CYP2C9; [4]): > 200 µM | IC50 (CYP2E1 [1]; read-out: IC50 CYP2E1, single components, RLM 0.2 mg/mL, 15 min, triplicate, mean ± SD): > 200 µM | IC50 (CYP2C19; microsomes): > 200 µM
